Assay: Kinetic parameter for hydrolysis of 1 by Antibody 2D10 after addition of compound 12
Assay type: ADME

Ki: 2800 nM
SMILES: CC(=O)O[C@@H](COCc1ccc([N+](=O)[O-])cc1)COP(=O)(O)CCCCCC(=O)O

Reference: ChEMBL document CHEMBL1130568, “Antibody-mediated regio- and enantioselective resolution of a glycerol derivative” (Bioorg Med Chem Lett, 1997)
